From patent publication US8569281B2, “Compounds and their administration for treating a neurodegenerative disease as well as a method for identifying a compound capable of inhibiting a kinase, such as LRRK” (Medical Research Council Technology, priority 2010, dated 2013)

The molecules below were run against LRRK2 (Homo sapiens (Human), UniProt Q5S007) (assay: In Vitro LRRK2 Assay (LabChip 3000, fluorescently-labeled peptide substrate)). Conditions: ATP 130 μM, substrate 1 μM, 2 hours, ambient temperature; LRRK2 variant not given; read-out: Ki (μM), affinity values for LRRK2.
Chain of LRRK2 (Q5S007 whole entry G2019S): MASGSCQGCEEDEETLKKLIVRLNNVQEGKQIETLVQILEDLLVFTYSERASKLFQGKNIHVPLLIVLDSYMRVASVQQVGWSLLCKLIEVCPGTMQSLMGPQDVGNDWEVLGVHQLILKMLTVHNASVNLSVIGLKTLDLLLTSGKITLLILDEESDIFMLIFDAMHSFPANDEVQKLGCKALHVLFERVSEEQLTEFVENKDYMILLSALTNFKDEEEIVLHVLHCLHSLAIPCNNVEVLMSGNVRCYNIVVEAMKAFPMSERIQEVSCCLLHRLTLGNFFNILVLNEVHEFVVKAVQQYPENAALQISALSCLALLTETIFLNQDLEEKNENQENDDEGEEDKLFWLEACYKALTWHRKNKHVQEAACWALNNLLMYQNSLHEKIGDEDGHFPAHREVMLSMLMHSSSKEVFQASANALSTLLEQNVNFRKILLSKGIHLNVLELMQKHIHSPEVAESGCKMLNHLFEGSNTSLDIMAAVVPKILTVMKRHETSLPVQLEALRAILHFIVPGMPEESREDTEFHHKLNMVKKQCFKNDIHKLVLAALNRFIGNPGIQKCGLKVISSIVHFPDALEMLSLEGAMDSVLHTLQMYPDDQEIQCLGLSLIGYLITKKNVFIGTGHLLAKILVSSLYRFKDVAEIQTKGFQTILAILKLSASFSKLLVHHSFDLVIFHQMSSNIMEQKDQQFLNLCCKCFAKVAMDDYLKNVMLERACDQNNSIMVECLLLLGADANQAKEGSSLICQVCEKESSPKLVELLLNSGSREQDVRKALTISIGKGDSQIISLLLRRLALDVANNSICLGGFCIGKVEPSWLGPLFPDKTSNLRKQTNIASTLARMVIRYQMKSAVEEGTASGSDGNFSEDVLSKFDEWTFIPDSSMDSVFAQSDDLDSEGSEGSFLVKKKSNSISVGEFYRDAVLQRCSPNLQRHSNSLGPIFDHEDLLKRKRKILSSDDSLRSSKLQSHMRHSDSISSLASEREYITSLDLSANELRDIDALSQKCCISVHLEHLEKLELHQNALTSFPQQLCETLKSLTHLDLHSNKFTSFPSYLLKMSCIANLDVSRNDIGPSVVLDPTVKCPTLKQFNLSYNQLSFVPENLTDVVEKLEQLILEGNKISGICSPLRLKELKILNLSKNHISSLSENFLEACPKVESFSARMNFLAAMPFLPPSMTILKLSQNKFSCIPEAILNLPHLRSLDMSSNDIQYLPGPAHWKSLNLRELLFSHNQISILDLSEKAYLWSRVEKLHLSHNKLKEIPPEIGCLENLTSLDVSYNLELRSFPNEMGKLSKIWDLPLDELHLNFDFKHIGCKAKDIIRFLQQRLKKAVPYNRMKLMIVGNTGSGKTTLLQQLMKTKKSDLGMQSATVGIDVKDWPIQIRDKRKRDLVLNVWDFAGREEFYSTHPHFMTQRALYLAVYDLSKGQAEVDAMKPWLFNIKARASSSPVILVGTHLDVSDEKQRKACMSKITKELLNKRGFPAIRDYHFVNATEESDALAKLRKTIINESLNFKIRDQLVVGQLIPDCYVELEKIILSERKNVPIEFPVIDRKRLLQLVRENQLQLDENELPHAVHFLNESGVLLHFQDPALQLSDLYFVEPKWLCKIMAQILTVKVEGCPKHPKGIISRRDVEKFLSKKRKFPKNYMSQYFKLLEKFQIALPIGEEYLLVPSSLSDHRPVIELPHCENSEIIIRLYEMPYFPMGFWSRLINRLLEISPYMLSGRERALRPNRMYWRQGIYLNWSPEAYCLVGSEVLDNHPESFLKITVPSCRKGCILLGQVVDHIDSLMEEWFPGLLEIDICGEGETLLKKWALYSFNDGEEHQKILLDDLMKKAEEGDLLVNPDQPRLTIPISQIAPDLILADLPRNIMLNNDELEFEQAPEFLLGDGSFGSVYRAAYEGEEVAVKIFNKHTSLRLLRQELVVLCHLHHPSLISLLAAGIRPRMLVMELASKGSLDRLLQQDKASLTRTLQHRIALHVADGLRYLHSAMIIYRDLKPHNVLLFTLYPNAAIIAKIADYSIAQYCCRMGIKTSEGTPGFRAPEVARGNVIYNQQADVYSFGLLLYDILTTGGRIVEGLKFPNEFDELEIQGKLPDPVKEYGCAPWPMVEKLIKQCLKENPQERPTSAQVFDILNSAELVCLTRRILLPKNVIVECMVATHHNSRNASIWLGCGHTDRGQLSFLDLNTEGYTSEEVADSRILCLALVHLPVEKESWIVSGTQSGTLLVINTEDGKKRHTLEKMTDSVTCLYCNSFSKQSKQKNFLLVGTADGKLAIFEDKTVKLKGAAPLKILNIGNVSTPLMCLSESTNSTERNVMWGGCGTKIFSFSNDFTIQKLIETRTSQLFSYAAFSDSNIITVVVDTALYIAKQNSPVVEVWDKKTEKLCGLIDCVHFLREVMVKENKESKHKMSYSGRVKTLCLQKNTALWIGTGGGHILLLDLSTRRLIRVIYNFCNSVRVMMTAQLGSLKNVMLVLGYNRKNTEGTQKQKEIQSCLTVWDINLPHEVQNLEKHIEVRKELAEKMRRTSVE
Format: biochemical
Description: This assay was used to determine a compound's potency in inhibiting activity of LRRK2 by determining, Kiapp, IC50, or percent inhibition values. In a polypropylene plate, LRRK2, fluorescently-labeled peptide substrate, ATP and test compound were incubated together. Using a LabChip 3000 (Caliper Life Sciences), after the reaction the substrate was separated by capillary electrophoresis into two populations: phosphorylated and unphosphorylated. The relative amounts of each were quantitated by fluorescence intensity. LRRK2 Ki was determined according to the equation: Y=V0*(1−((x+Ki*(1+S/Km)+Et)/(2*Et)−(((x+Ki*(1+S/Km)+Et)^2−(4*Et*x))^0.5)/(2*Et))).
Ki values in Table 4 and elsewhere herein are shown in μM.
Assay conditions and materials used were as follows:
Compound Plate Preparation:
For serial dilutions, 34.6 μl DMSO was added to columns 3-24.
Total and Blank Preparation:
In Complete Reaction Buffer, substrate was diluted to 4 μM. Equal volumes of Complete Reaction Buffer and 4 μM substrate were combined to obtain the blank. Equal volumes of Complete Reaction Buffer and 4 μM substrate were combined and to the combined solution was added 2× final LRRK2 concentration.
To a 50 μl polypropylene plate, 5 μl/well buffer/substrate was added by hand to Blank wells. A Biomek FX was used to start the kinase reaction (“PLK SAR 23 ATP”). The following were added to the appropriate wells: • 2 μl compound+23 μl ATP; • 5 μl/well compound/ATP in Assay Plate; • 5 μl/well kinase/substrate in Assay Plate;
The plate was incubated for 2 hours in the dark. Biomek FX was used to stop the kinase reaction (“PLK Stop”), and 10 μl/well Stop solution was added to the Assay Plate. Results were read on the LabChip 3000.
The LabChip 3000 was run using the job “LRRK2 IC50” with the following job settings: • Pressure: −1.4 psi • Downstream voltage: −500 V • Upstream voltage: −2350 V • Post sample buffer sip time: 75 seconds • Post dye buffer sip time: 75 seconds • Final delay time: 200 seconds Parkinson's Disease Animal Model
“3-(1-((2,2-difluorocyclopropyl)methyl)-1H-benzo[d]imidazol-5-yl)-4-(tetrahydro-2H-pyran-4-yloxy)-1H-pyrazolo[4,3-c]pyridine [Example 127]” was tested, and the Ki was 0.023 µM. Molecule “3-(1-isopropyl-1H-benzo[d]imidazol-5-yl)-4-(tetrahydro-2H-pyran-4-yloxy)-1H-pyrazolo[4,3-c]pyridine [Example 123]” has a Ki of 0.02 µM. `CC1CCCN(C(=O)CCc2[nH]nc3ccnc(NC4CCOCC4)c23)C1` (stereo in doubt) [Example 2, 1-[(3R)-3-methylpiperidin-1-yl]-3-[4-(tetrahydro-2H-pyran-4-ylamino)-1H-pyrazolo-[4,3-c]pyridin-3-yl]propan-1-one] gave a Ki of 0.034 µM. Molecule `O=C(CCc1[nH]nc2ccnc(OC3CCCCC3)c12)N1CCC[C@H](c2ccccc2)C1` [Example 6, 3-[4-(Cyclohexyloxy)-1H-pyrazolo[4,3-c]pyridin-3-yl]-1-[(3R)-3-phenylpiperidin-1-yl]propan-1-one] has a Ki of 0.014 µM. `O=C(c1ccc(CCc2n[nH]c3ccnc(NC4CCCCC4)c23)cc1)N1CCN(C2CC2)CC1` [Example 8, (4-{2-[4-(Cyclohexylamino)-1H-pyrazolo[4,3-c]pyridin-3-yl]ethyl}phenyl)(4-cyclopropylpiperazin-1-yl)methanone] showed a Ki of 0.017 µM. `c1cc(-c2n[nH]c3ccnc(NC4CCOCC4)c23)cc(N2CCOCC2)n1` [Example 9, 3-[2-(Morpholin-4-yl)pyridin-4-yl]-N-(tetrahydro-2H-pyran-4-yl)-1H-pyrazolo[4,3-c]pyridin-4-amine] showed a Ki of 0.027 µM. Work on `CN1CCN(c2cc(-c3n[nH]c4ccnc(OC5CCOCC5)c34)ccn2)CC1` [Example 14, 3-[2-(4-Methylpiperazin-1-yl)pyridin-4-yl]-4-(tetrahydro-2H-pyran-4-yloxy)-1H-pyrazolo[4,3-c]pyridine] yielded a Ki of 0.006 µM. Molecule `c1cc2n[nH]c(C3CC3)c2c(OC2CCCCC2)n1` [Example 26, 4-(Cyclohexyloxy)-3-cyclopropyl-1H-pyrazolo[4,3-c]pyridine] has a Ki of 0.024 µM. Molecule `c1cc2n[nH]c(C3CC3)c2c(OC2CCOCC2)n1` [Example 28, 3-Cyclopropyl-4-(tetrahydro-2H-pyran-4-yloxy)-1H-pyrazolo[4,3-c]pyridine] has a Ki of 0.035 µM. In the case of `CC[C@@H](C)Oc1nccc2[nH]nc(C3CC3)c12` [Example 29, 3-Cyclopropyl-4-[(2R)-butan-2-yloxy)-1H-pyrazolo[4,3-c]pyridine], the Ki is reported as 0.078 µM. Work on `Cc1[nH]nc2ccnc(OC3CCOC3)c12` (stereo not drawn) [Example 31] yielded a Ki of 0.158 µM. `c1coc(-c2n[nH]c3ccnc(OC4CCOCC4)c23)c1` [Example 37, 3-(Furan-2-yl)-4-(tetrahydro-2H-pyran-4-yloxy)-1H-pyrazolo[4,3-c]pyridine] was tested, and the Ki was 0.132 µM. Work on `c1cc2[nH]nc(-c3cnn(C4CCCC4)c3)c2c(OC2CCOCC2)n1` [Example 39, 3-(1-Cyclopentyl-1H-pyrazol-4-yl)-4-(tetrahydro-2H-pyran-4-yloxy)-1H-pyrazolo[4,3-c]pyridine] yielded a Ki of 0.006 µM. With `c1cc2[nH]nc(-c3cnn(CC4CCC4)c3)c2c(OC2CCCCC2)n1` [Example 41, 3-[1-(Cyclobutylmethyl)-1H-pyrazol-4-yl]-4-(cyclohexyloxy)-1H-pyrazolo[4,3-c]pyridine] the Ki was 0.055 µM. `Cn1cc(/C=C/c2n[nH]c3ccnc(OC4CCCCC4)c23)cn1` [Example 52, 4-(Cyclohexyloxy)-3-[(E)-2-(1-methyl-1H-pyrazol-4-yl)ethenyl]-1H-pyrazolo[4,3-c]pyridine] gave a Ki of 0.0003 µM. Molecule `CC(C)Oc1nccc2[nH]nc(-c3cc(C(=O)N(C)C)n(C(C)C)c3)c12` [Example 54, 4-(4-isopropoxy-1H-pyrazolo[4,3-c]pyridine-3-yl)-1-isopropyl-N,N-dimethyl-1H-pyrrole-2-carboxamide] has a Ki of 0.018 µM. Molecule `CC(C)Oc1nccc2[nH]nc(-c3cc(C(=O)N4CCCCC4)n(C(C)C)c3)c12` [Example 56, (4-(4-Isopropoxy-1H-pyrazolo[4,3-c]pyridin-3-yl)-1-isopropyl-1H-pyrrol-2-yl)(piperidin-1-yl)methanone] has a Ki of 0.019 µM. `CC(C)Oc1nccc2[nH]nc(-c3cc(C(=O)N4CCOCC4)n(C(C)C)c3)c12` [Example 57, (4-(4-Isopropoxy-1H-pyrazolo[4,3-c]pyridin-3-yl)-1-isopropyl-1H-pyrrol-2-yl)(morpholino)methanone] showed a Ki of 0.019 µM. `CC(C)Oc1nccc2[nH]nc(-c3cc(C(=O)NC4COC4)n(C(C)C)c3)c12` [Example 59, 4-(4-Isopropoxy-1H-pyrazolo[4,3-c]pyridin-3-yl)-1-isopropyl-N-(oxetan-3-yl)-1H-pyrrole-2-carboxamide] gave a Ki of 0.0024 µM. Molecule `COc1nccc2[nH]nc(-c3cc(C(=O)N(C)C)n(C(C)C)c3)c12` [Example 61, 1-Isopropyl-4-(4-methoxy-1H-pyrazolo[4,3-c]pyridin-3-yl)-N,N-dimethyl-1H-pyrrole-2-carboxamide] has a Ki of 0.077 µM. With `COc1nccc2[nH]nc(-c3cc(C(=O)NC4COC4)n(C(C)C)c3)c12` [Example 64, 1-isopropyl-4-(4-methoxy-1H-pyrazolo[4,3-c]pyridin-3-yl)-N-(oxetan-3-yl)-1H-pyrrole-2-carboxamide] the Ki was 0.014 µM. With `CC(C)n1cc(-c2n[nH]c3ccnc(OC4CCOCC4)c23)cc1C(=O)N1CCOCC1` [Example 65, (1-isopropyl-4-(4-(tetrahydro-2H-pyran-4-yloxy)-1H-pyrazolo[4,3-c]pyridin-3-yl)-1H-pyrrol-2-yl)(morpholino)methanone] the Ki was 0.039 µM. With `CC(C)n1cc(-c2n[nH]c3ccnc(OC4CCOCC4)c23)cc1C(=O)N(C)C` [Example 66, 1-isopropyl-N,N-dimethyl-4-(4-(tetrahydro-2H-pyran-4-yloxy)-1H-pyrazolo[4,3-c]pyridin-3-yl)-1H-pyrrole-2-carboxamide] the Ki was 0.045 µM. With `CC(C)n1cc(-c2n[nH]c3ccnc(OC4CCOCC4)c23)cc1C(=O)NC1COC1` [Example 70, 1-isopropyl-N-(oxetan-3-yl)-4-(4-(tetrahydro-2H-pyran-4-yloxy)-1H-pyrazolo[4,3-c]pyridin-3-yl)-1H-pyrrole-2-carboxamide] the Ki was 0.003 µM. In the case of `O=C(c1cc(-c2n[nH]c3ccnc(OC4CCOCC4)c23)ccn1)N1CCOCC1` [Example 73, Morpholino(4-(4-(tetrahydro-2H-pyran-4-yloxy)-1H-pyrazolo[4,3-c]pyridin-3-yl)pyridin-2-yl)methanone], the Ki is reported as 0.221 µM. Work on `FC(F)(F)COc1nccc2[nH]nc(-c3ccnc(N4CCOCC4)c3)c12` [Example 74, 4-(4-(4-(2,2,2-Trifluoroethoxy)-1H-pyrazolo[4,3-c]pyridin-3-yl)pyridin-2-yl)morpholine] yielded a Ki of 0.031 µM. Work on `CC(C)n1cc(-c2n[nH]c3ccnc(OCC(F)(F)F)c23)cn1` [Example 76, 3-(1-Isopropyl-1H-pyrazol-4-yl)-4-(2,2,2-trifluoroethoxy)-1H-pyrazolo[4,3-c]pyridine] yielded a Ki of 0.026 µM. Work on `CC(C)n1cc(-c2n[nH]c3ccnc(OC(C)C(F)(F)F)c23)cn1` (stereo not drawn) [Example 78, 3-(1-Isopropyl-1H-pyrazol-4-yl)-4-(2,2,2-trifluoro-1-methyl-ethoxy)-1H-pyrazolo[4,3-c]pyridine] yielded a Ki of 0.013 µM. `c1cc(-c2n[nH]c3ccnc(OC4CCOCC4)c23)nc(N2CCOCC2)n1` [Example 84, 4-(4-(4-(tetrahydro-2H-pyran-4-yloxy)-1H-pyrazolo[4,3-c]pyridin-3-yl)pyrimidin-2-yl)morpholine] showed a Ki of 0.065 µM. Molecule `COc1nccc2[nH]nc(-c3cnn(C4COC4)c3)c12` [Example 86] has a Ki of 0.031 µM. `COc1nccc2[nH]nc(-c3cnn(CC(F)(F)F)c3)c12` [Example 88, 4-Methoxy-3-(1-(2,2,2-trifluoroethyl)-1H-pyrazol-4-yl)-1H-pyrazolo[4,3-u]pyridine] was tested, and the Ki was 0.025 µM. Molecule `COc1nccc2[nH]nc(-c3cnn(CC4(C)COC4)c3)c12` [Example 89, 4-Methoxy-3-(1-((3-methyloxetan-3-yl)methyl)-1H-pyrazol-4-yl)-1H-pyrazolo[4,3-c]pyridine] has a Ki of 0.108 µM. For `c1cc2[nH]nc(-c3cnn(CC4CCOCC4)c3)c2c(OC2CCOCC2)n1` [Example 93, 3-(1-((Tetrahydro-2H-pyran-4-yl)methyl)-1H-pyrazol-4-yl)-4-(tetrahydro-2H-pyran-4-yloxy)-1H-pyrazolo[4,3-c]pyridine], the Ki was 0.011 µM. Work on `FC(F)(F)Cn1cc(-c2n[nH]c3ccnc(OC4CCOCC4)c23)cn1` [Example 96, 4-(tetrahydro-2H-pyran-4-yloxy)-3-(1-(2,2,2-trifluoroethyl)-1H-pyrazol-4-yl)-1H-pyrazolo[4,3-c]pyridine] yielded a Ki of 0.006 µM.

Same assay, conditions: read-out: Ki (μM), affinity values for LRRK2
For “3-(1-(Oxetan-3-yl)-1H-benzo[d]imidazol-6-yl)-4-(tetrahydro-2H-pyran-4-yloxy)-1H-pyrazolo[4,3-c]pyridine [Example 124]”, the Ki was 0.019 µM. Molecule “3-(1-(oxetan-3-yl)-1H-benzo[d]imidazol-5-yl)-4-(tetrahydro-2H-pyran-4-yloxy)-1H-pyrazolo[4,3-c]pyridine [Example 125]” has a Ki of 0.056 µM.
